Assay results reported in ChEMBL document CHEMBL1157215, “Isolation and structural modification of 7-deoxynarciclasine and 7-deoxy-trans-dihydronarciclasine” (2006).
Converted amounts (≈) assume the structure as drawn.

Legend:
Format in all cases: functional
[1] = tested on: P388; assay: Growth inhibition of mouse P388 cells; details: for EC50: read-out: ED50 (the source's name)
[2] = tested on: BXPC-3; assay: Growth inhibition of human BXPC3 cells
[3] = tested on: MCF7; assay: Growth inhibition of human MCF7 cells
[4] = tested on: DU-145; assay: Growth inhibition of human DU145 cells
[5] = Growth inhibition of human SF269 cells
[6] = tested on: KM-20L2; assay: Growth inhibition of human KM20L2 cells
[7] = tested on: NCI-H460; assay: Growth inhibition of human NCI-H460 cells

SMILES	GI50 [1] [µg/mL]	GI [2] [µg/mL]	GI50 [3] [µg/mL]	GI50 [4] [µg/mL]	GI50 [5] [µg/mL]	EC50 [1] [µg/mL]	GI50 [6] [µg/mL]	GI50 [7] [µg/mL]
CC1(C)O[C@@H]2[C@H](O1)[C@@H](O[Si](C)(C)C(C)(C)C)C=C1c3cc4c(cc3CN[C@H]12)OCO4	> 10							
CC(=O)O[C@H]1[C@@H]2NC(=O)c3cc4c(cc3[C@H]2C[C@H](OC(C)=O)[C@H]1OC(C)=O)OCO4		0.69	0.46 (≈ 1.1 µM)	0.46 (≈ 1.1 µM)	0.3 (≈ 0.715 µM)	1.61 (≈ 3.84 µM)	0.66 (≈ 1.57 µM)	1.5 (≈ 3.58 µM)
CC1(C)O[C@H]2[C@@H]3NCc4cc5c(cc4[C@H]3C[C@H](O)[C@H]2O1)OCO5	> 10							
CC1(C)O[C@@H]2[C@H](O1)[C@@H](O)C=C1c3cc4c(cc3C(=O)N[C@H]12)OCO4	> 10							
O=C1N[C@H]2[C@H](O)[C@H](O)[C@@H](O)[C@H](O)[C@@H]2c2cc3c(c(O)c21)OCO3 [PANCRATISTATIN]		0.028	0.032 (≈ 0.0984 µM)	0.016 (≈ 0.0492 µM)	0.017 (≈ 0.0523 µM)	0.039 (≈ 0.12 µM)	0.026 (≈ 0.0799 µM)	0.048 (≈ 0.148 µM)
CC1(C)O[C@H]2[C@@H]3NC(=O)c4cc5c(cc4[C@H]3C[C@H](O)[C@H]2O1)OCO5	> 10							
O=C1N[C@@H]2C(=C[C@H](O)[C@@H](O)[C@H]2O)c2cc3c(c(O)c21)OCO3 [NARCICLASINE]		0.026	0.019 (≈ 0.0618 µM)	0.011 (≈ 0.0358 µM)	0.021 (≈ 0.0683 µM)	0.002 (≈ 0.00651 µM)	0.21 (≈ 0.683 µM)	0.032 (≈ 0.104 µM)
CC1(C)O[C@@H]2[C@H](O1)[C@@H](O[Si](C)(C)C(C)(C)C)C=C1c3cc4c(cc3C(=O)N[C@H]12)OCO4	> 10							
CC1(C)O[C@@H]2[C@H](O1)[C@@H](O)C=C1c3cc4c(cc3CN[C@H]12)OCO4	> 10							
O=C1N[C@@H]2C(=C[C@H](O)[C@@H](O)[C@H]2O)c2cc3c(cc21)OCO3		0.12	0.093 (≈ 0.319 µM)	0.062 (≈ 0.213 µM)	0.047 (≈ 0.161 µM)	< 0.01	0.15 (≈ 0.515 µM)	0.11 (≈ 0.378 µM)
CC(=O)O[C@H]1C=C2c3cc4c(cc3C(=O)N[C@H]2[C@@H]2OC(C)(C)O[C@@H]21)OCO4	> 10							
O=C1N[C@H]2[C@H](O)[C@H](O)[C@@H](O)C[C@@H]2c2cc3c(cc21)OCO3		0.036	0.03 (≈ 0.102 µM)	0.025 (≈ 0.0852 µM)	0.03 (≈ 0.102 µM)	< 0.01	0.028 (≈ 0.0955 µM)	0.037 (≈ 0.126 µM)
Cl.O[C@@H]1[C@H](O)[C@@H](O)C=C2c3cc4c(cc3CN[C@H]21)OCO4		4.4	3.4	3.2	2.9	7.1	> 10	3.4
O[C@@H]1[C@H](O)[C@@H](O)C[C@@H]2c3cc4c(cc3CN[C@@H]12)OCO4		>10	> 10	4.4 (≈ 15.8 µM)	> 10	0.43 (≈ 1.54 µM)	> 10	7.5 (≈ 26.9 µM)
CC(=O)O[C@H]1C=C2c3cc4c(cc3C(=O)N[C@H]2[C@H](O)[C@@H]1O)OCO4		0.26	0.24 (≈ 0.72 µM)	0.26 (≈ 0.78 µM)	0.19 (≈ 0.57 µM)	< 0.01	0.18 (≈ 0.54 µM)	0.32 (≈ 0.96 µM)
Cl.O[C@@H]1[C@H](O)[C@@H](O)C[C@@H]2c3cc4c(cc3CN[C@@H]12)OCO4		1.4	1.7	0.71	1.6	3.3	1.7	0.78
CC(=O)O[C@@H]1[C@H](OC(C)=O)[C@@H](OC(C)=O)C=C2c3cc4c(cc3C(=O)N[C@H]21)OCO4 [LYCORICIDINE TRIACETATE]		0.2	0.59	0.48	0.15	0.158	0.18	1.2
CC1(C)O[C@H]2[C@@H]3NC(=O)c4cc5c(cc4[C@H]3C[C@H](O[Si](C)(C)C(C)(C)C)[C@H]2O1)OCO5	> 10							
CC1(C)O[C@H]2[C@@H]3NCc4cc5c(cc4[C@H]3C[C@H](O[Si](C)(C)C(C)(C)C)[C@H]2O1)OCO5	> 10							
